Read-outs that look alike come from different tables or passages of the source.
Experiments:
[1] = Stability of HI-113 and Ala-d4T-MP in plasma; assay type: in vitro ADME; details: for stability in plasma: 250 μM HI-113, 100 μM Ala-d4T-MP
Excerpt: (§1) The HPLC system used for these studies was a Hewlett Packard (Palo Alto, Calif.) series 1100 instrument equipped with a quaternary pump, an autosampler, an automatic electronic degasser, an automatic thermostatic column compartment, a diode array detector and a computer with Chemstation software for data analysis (Chen et al., J. Chromatogr. B., 724, 157 (1999); Chen et al., J. Chromatogr. B., 727, 205 (1999); and Chen et al., J. Liq. Chromatogr., 22, 1771 (1999)). The analytical column used was a Zobax SB-Phenyl (5 μm, Hewlett Packard, Inc.) column attached to a guard column (Hewlett Packard, Inc.). The column was equilibrated prior to data collection. […] The detection wavelength was 268 nm, the peakwidth was less than 0.03 minutes, the response time was 0.5 seconds, and the slit was 4 nm.
(§2) Plasma samples (200 μL) were mixed 1:4 with acetone (800 μL) and vortexed for at least 30 seconds. Following centrifugation, the supernatant was transferred into a clean tube and was dried under nitrogen. A 50 μL solution of 50% methanol in 200 mM HCl was used to reconstitute the extraction residue, and 40 μL was injected into the HPLC.
(§3) The whole blood samples were placed in a 37° C. water bath, while plasma samples were stored at −20° C. At a predetermined time, an aliquot (100 μl) of spiked whole blood or plasma was extracted by adding 400 μl of acetone to induce precipitation of proteins, as described above.

[2] = Stability of HI-113 and Ala-d4T-MP in whole blood; assay type: in vitro ADME; details: 37° C.; for stability in whole blood: 250 μM HI-113, 100 μM Ala-d4T-MP
Excerpt: as §1, §2, §3

[3] = Stability in simulated intestinal fluid; assay type: in vitro ADME; details: 100 μM, 37° C.
Method: (§4) The spiked fluids were then placed in a 37° C. water bath. At a predetermined time, 100 μl aliquots of the spiked gastric or intestinal fluid were extracted by adding 400 μl of acetone as discussed above.

[4] = Pharmacokinetics of Ala-d4T-MP and its metabolite after intravenous Ala-d4T-MP; assay type: in vivo, Balb/c mice
Method: (§5) Female Balb/c mice (6-8 weeks old) from Taconic (Germantown, N.Y.) were housed in a controlled environment (12-hours of light/12-hours of dark, 22±1° C., 60±10% relative humidity), which is fully accredited by the USDA. All rodents were housed in microisolator cages (Lab Products, Inc., N.J.) containing autoclaved bedding. The mice were allowed free access to autoclaved pellet food and tap water throughout the study.
Blood samples (˜500 μL) were obtained from the ocular venous plexus by retro-orbital venipuncture at 0, 2, 5, 10, 15, 30, 45, 60, 120, 240 and 360 minutes after intravenous injection. […]
Pharmacokinetic modeling and parameter calculations were carried out using the WinNonlin Professional Version 3.0 (Pharsight, Inc., Mountain, Calif.) pharmacokinetics software (Chen et al., Pharm. Res., 16, 1003 (1999); Chen et al., Pharm. Res., 16, 117 (1999); Chen et al., J. Clin. Pharmacol., 39, 1248 (1999); Uckun et al., Clin. Cancer Res., 5, 2954 (1999); and Uckun et al., J. Pharmacol. Exp. Ther., 291, 1301 (1999)). […] The area under the concentration-time curve (AUC) was calculated according to the linear trapezoidal rule between the first sampling time (0 hours) and the last sampling time plus C/k, where C is the concentration of the last sampling and k is the elimination rate constant. The systemic clearance (CL) was determined by dividing the dose by the AUC. […]

[5] = Pharmacokinetics after oral administration of HI-113; assay type: in vivo, Balb/c mice
Method: Female Balb/c mice (6-8 weeks old) from Taconic (Germantown, N.Y.) were housed in a controlled environment (12-hours of light/12-hours of dark, 22±1° C., 60±10% relative humidity), which is fully accredited by the USDA. All rodents were housed in microisolator cages (Lab Products, Inc., N.J.) containing autoclaved bedding. The mice were allowed free access to autoclaved pellet food and tap water throughout the study. All animal care procedures conformed to the Guide for the Care and Use of Laboratory Animals (National Research Council, National Academy Press, Washington D.C. 1996).
Sampling time points were 0, 2, 5, 10, 15, 30, 45, 60, 120, 240 and 360 minutes after the gavage. […]
Pharmacokinetic modeling and parameter calculations were carried out using the WinNonlin Professional Version 3.0 (Pharsight, Inc., Mountain, Calif.) pharmacokinetics software (Chen et al., Pharm. Res., 16, 1003 (1999); Chen et al., Pharm. Res., 16, 117 (1999); Chen et al., J. Clin. Pharmacol., 39, 1248 (1999); Uckun et al., Clin. Cancer Res., 5, 2954 (1999); and Uckun et al., J. Pharmacol. Exp. Ther., 291, 1301 (1999)). […] The area under the concentration-time curve (AUC) was calculated according to the linear trapezoidal rule between the first sampling time (0 hours) and the last sampling time plus C/k, where C is the concentration of the last sampling and k is the elimination rate constant. […]

[6] = Pharmacokinetics of HI-113 and its metabolites after intravenous HI-113
Method: as §5
(§6) All collected blood samples were heparinized and centrifuged at 7000×g for 5 minutes to separate the plasma fraction from the whole blood. The plasma samples were then processed immediately using the extraction procedure described above.
An appropriate model was chosen on the basis of the lowest sum of weighted squared residuals, the lowest Schwartz Criterion (SC), the lowest Akaike's Information Criterion (AIC) value, the lowest standard errors of the fitted parameters, and the dispersion of the residuals. The elimination half-life was estimated by linear regression analysis of the terminal phase of the plasma concentration-time profile. […] The systemic clearance (CL) was determined by dividing the dose by the AUC.

[7] = Pharmacokinetics of d4T after intravenous d4T; assay type: in vivo, Balb/c mice; details: i.v. d4T 40 mg/kg
Method: as §5
Blood samples (˜500 μL) were obtained from the ocular venous plexus by retro-orbital venipuncture at 0, 2, 5, 10, 15, 30, 45, 60, 120, 240 and 360 minutes after intravenous injection.
as §6
Pharmacokinetic modeling and parameter calculations were carried out using the WinNonlin Professional Version 3.0 (Pharsight, Inc., Mountain, Calif.) pharmacokinetics software (Chen et al., Pharm. Res., 16, 1003 (1999); Chen et al., Pharm. Res., 16, 117 (1999); Chen et al., J. Clin. Pharmacol., 39, 1248 (1999); Uckun et al., Clin. Cancer Res., 5, 2954 (1999); and Uckun et al., J. Pharmacol. Exp. Ther., 291, 1301 (1999)). An appropriate model was chosen on the basis of the lowest sum of weighted squared residuals, the lowest Schwartz Criterion (SC), the lowest Akaike's Information Criterion (AIC) value, the lowest standard errors of the fitted parameters, and the dispersion of the residuals. The elimination half-life was estimated by linear regression analysis of the terminal phase of the plasma concentration-time profile. The area under the concentration-time curve (AUC) was calculated according to the linear trapezoidal rule between the first sampling time (0 hours) and the last sampling time plus C/k, where C is the concentration of the last sampling and k is the elimination rate constant. The systemic clearance (CL) was determined by dividing the dose by the AUC. The metabolic clearance of the parent drug, the formation clearance of the metabolite, the clearance elimination of the metabolite, and the distribution clearance of the metabolite were estimated by simultaneous fitting of the concentration of parent drug and metabolites as a function of time curve to pharmacokinetic models (see FIGS. 7A & 8A) specified as a system of differential equations (Gabrielsson & Weiner, Phamacokinetic/Phamacodynamic Data Analysis: Concepts and Applications, Swedish Pharmaceutical Press (1997)).

[8] = for effect of esterase inhibitor on decomposition of HI-113 in plasma: plasma pre-incubated with inhibitor at 37° C. for 30 minutes, 250 μM HI-113
Method: Plasma samples were pre-incubated with the esterase inhibitors paraoxon (final concentration of 0.1 mM), physostigmine (final concentration of 0.1 mM), and EDTA (final concentration of 1M) at 37° C. for 30 minutes. […] The data in Table 1 was the mean percent hydrolysis from two experiments.

[9] = Stability of HI-113 in murine liver homogenates; assay type: in vitro ADME, Balb/c mice; details: 100 μM
Method: Fresh mouse liver was obtained from Balb/c mice and homogenated in 1×PBS (1:1, W/V) using a Polytron (PT-MR2000) homogenizer (Kinematical AG, Littau, Switzerland). […] At a predetermined time, an aliquot (100 μl) of spiked liver homogenate was extracted by adding 400 μl of acetone to induce precipitation of proteins, as described above.

[10] = Stability in simulated gastric fluid; assay type: in vitro ADME; details: 100 μM, 37° C.
Method: as §4

[11] = system: HIV replication in human peripheral blood mononuclear cells (PBMNC); details: compared with d4T; cited from earlier work
[12] = system: HIV replication in thymidine kinase-deficient T-cells; details: compared with d4T; cited from earlier work
HIV-2 = details: PBMNC; cited from earlier work
[13] = system: zidovudine (ZVD/AZT)-resistant HIV-1 strains; details: PBMNC; cited from earlier work
[14] = plasma, estimated from composite curve of pooled data
[15] = i.v. HI-113 100 mg/kg, plasma, estimated from composite curve of pooled data
[16] = i.v. HI-113 100 mg/kg, mean ± S.E.M

For `Cc1cn([C@H]2C=C[C@@H](COP(=O)(O)NC(C)C(=O)O)O2)c(=O)[nH]c1=O` (stereo partly shown) [Ala-d4T-MP, alaninyl-d4T-monophosphate], the “stability in plasma” value [1] was “stable in both whole blood and plasma for 1 day”, the “stability in whole blood” value [2] was “stable in both whole blood and plasma for 1 day” and the “stability in intestinal fluid” value [3] was “stable”. The “CLm1 as share of the total systemic clearance” value ([4]; i.v. Ala-d4T-MP) was 99%, the “estimated bioavailability of the metabolite” value ([5]; after oral administration of HI-113) was “approximately 12%” and the “fraction of HI-113 converted to the metabolite” value ([6]; after intravenous HI-113) was 23%.
In the case of `Cc1cn([C@H]2C=C[C@@H](CO)O2)c(=O)[nH]c1=O` [d4T, 2′,3′-didehydro-2′,3′-dideoxythymidine], the “formation of d4T from intravenously administered Ala-d4T-MP (fraction converted)” value ([4]; female, Balb/c, mouse, in vivo, iv) is reported as 15%, the AUC [7, 14] is reported as 12227.1 µM·min and the CL [7, 14] is reported as 15.0 mL/min/kg. For the same molecule, the VSS [7, 14] was 0.6578 L/kg, the t1/2 [7, 14] was 0.505 h and the CL ([7]; mean ± S.E.M) was “(15.2 ± 0.7) ml/min/kg”. The VSS ([7]; mean ± S.E.M) was “(581.8 ± 62.8) ml/kg”, the t1/2 ([7]; mean ± S.E.M) was “(26.6 ± 1.2) min” and the t1/2 [6, 15] was 1.913 h.
With `O=C(O)CN(CCN(CC(=O)O)CC(=O)O)CC(=O)O` [EDTA, reference compound] the “effect of esterase inhibitor on decomposition of HI-113 in plasma” value [8] was “not affected”.
With `CCOP(=O)(OCC)Oc1ccc([N+](=O)[O-])cc1` [paraoxon, reference compound] the “effect of esterase inhibitor on decomposition of HI-113 in plasma” value [8] was “significantly inhibited”.
With `COC(=O)C(C)NP(=O)(OC[C@@H]1C=C[C@H](n2cc(C)c(=O)[nH]c2=O)O1)Oc1ccc(Br)cc1` (stereo partly shown) [HI-113, d4T-5′-[p-bromophenylmethoxyalaninyl phosphate]] the “time until decomposition was complete in plasma” value ([1]; 250 μM) was no more than 30 min, the “stability in plasma” value [1] was “very unstable” and the “HI-113 decomposed following incubation with plasma” value ([1]; after 5 minutes, 250 μM) was “over 95%”. The “stability in whole blood” value [2] was “very unstable”, the “time until decomposition was complete in whole blood” value ([2]; 250 μM) was no more than 30 min and the “HI-113 decomposed in whole blood” value ([2]; 5 minutes, 250 μM) was 68%. For the same molecule, the “HI-113 decomposed in whole blood” value ([2]; 10 minutes, 250 μM) was 87%, the “HI-113 decomposed in whole blood” value ([2]; 15 minutes, 250 μM) was 92% and the “percent hydrolysis of HI-113 in plasma” value ([8]; EDTA (1 mM), 10 min) was 100%. For the same molecule, the “percent hydrolysis of HI-113 in plasma” value ([8]; EDTA (1 mM), 15 min) was 100%, the “percent hydrolysis of HI-113 in plasma” value ([8]; EDTA (1 mM), 30 min) was 100% and the “percent hydrolysis of HI-113 in plasma” value ([8]; EDTA (1 mM), 60 min) was 100%. The “percent hydrolysis of HI-113 in plasma” value ([8]; EDTA (1 mM), 120 min) was 100%, the “percent hydrolysis of HI-113 in plasma” value ([8]; EDTA (1 mM), arylesterase, 5 min) was 99% and the “percent hydrolysis of HI-113 in plasma” value ([8]; Paraoxon (0.1 mM), 10 min) was 2%. The “percent hydrolysis of HI-113 in plasma” value ([8]; Paraoxon (0.1 mM), 15 min) was 2%, the “percent hydrolysis of HI-113 in plasma” value ([8]; Paraoxon (0.1 mM), 30 min) was 2% and the “percent hydrolysis of HI-113 in plasma” value ([8]; Paraoxon (0.1 mM), 60 min) was 3%. For the same molecule, the “percent hydrolysis of HI-113 in plasma” value ([8]; Paraoxon (0.1 mM), 120 min) was 24%, the “percent hydrolysis of HI-113 in plasma” value ([8]; Paraoxon (0.1 mM), cholinesterase & carboxylesterase, 5 min) was 0% and the “percent hydrolysis of HI-113 in plasma” value ([8]; Physostigmine (0.1 mM), 10 min) was 65%. The “percent hydrolysis of HI-113 in plasma” value ([8]; Physostigmine (0.1 mM), 15 min) was 76%, the “percent hydrolysis of HI-113 in plasma” value ([8]; Physostigmine (0.1 mM), 30 min) was 89% and the “percent hydrolysis of HI-113 in plasma” value ([8]; Physostigmine (0.1 mM), 60 min) was 100%. The “percent hydrolysis of HI-113 in plasma” value ([8]; Physostigmine (0.1 mM), 120 min) was 100%, the “percent hydrolysis of HI-113 in plasma” value ([8]; Physostigmine (0.1 mM), cholinesterase, 5 min) was 43% and the “percent hydrolysis of HI-113 in plasma” value ([8]; no inhibitor, 5 min, 250 μM HI-113, mean of two experiments) was 95%. The “percent hydrolysis of HI-113 in plasma” value ([8]; no inhibitor, 10 min) was 98%, the “percent hydrolysis of HI-113 in plasma” value ([8]; no inhibitor, 15 min) was 99% and the “percent hydrolysis of HI-113 in plasma” value ([8]; no inhibitor, 30 min) was 100%. The “percent hydrolysis of HI-113 in plasma” value ([8]; no inhibitor, 60 min) was 100%, the “percent hydrolysis of HI-113 in plasma” value ([8]; no inhibitor, 120 min) was 100% and the “time within which HI-113 decomposed in liver homogenate” value [9] was no more than 30 min. For the same molecule, the “stability in gastric fluid” value [10] was “relatively stable in gastric fluid for 8 hours”, the “stability in intestinal fluid” value [3] was “not stable” and the “HI-113 decomposed in intestinal fluid” value ([3]; within 2 hours) was “approximately 94%”. For the same molecule, the “plasma concentration of the parent compound (below the detection limit)” value ([5]; oral HI-113 100 mg/kg) was less than 500 nM, the “potency in inhibiting HIV replication” value [11] was “substantially more potent than d4T” and the “potency in inhibiting HIV replication” value [12] was “substantially more potent than d4T”. The “concentration inhibiting replication of HIV-2” value (HIV-2) was “nanomolar concentrations”, the “concentration inhibiting replication of zidovudine (ZVD/AZT)-resistant HIV-1 strains” value [13] was “nanomolar concentrations” and the VSS [6, 15] was 0.8199 L/kg. For the same molecule, the CL [6, 16] was “(174.5 ± 13.2) ml/min/kg” and the VSS [6, 16] was “(920 ± 127.4) ml/kg”.
